In paper PMC10245146, “CNS4 causes subtype‐specific changes in agonist efficacy and reversal potential of permeant cations in NMDA receptors” (Pharmacology Research & Perspectives, 2023):

Tests used:
GluN1/2A NMDA receptors = target: T1, GluN1/2A NMDA receptors (UniProt P35439+Q12879); assay: Current-voltage (I-V) relationship, Xenopus oocytes expressing 1/2A; type: cell-based; conditions: for Difference in reversal potential (∆Erev) between W and WO CNS4 / Difference in reversal potential (∆Erev) between WO and W CNS4: 100 μM CNS4; for Reversal potential (Erev): with 100 μM CNS4
T1 construct: expressed in transfected cells; host or cells: Xenopus oocytes (cRNA injection)
Protocol: There are two sets of recording solutions used for the I‐V assay: solutions with normal (1) and low (2) Ca^2+ concentrations. The normal Ca^2+ solutions contained (mM): 115 NaCl, 1 KCl, 1.8 CaCl2, 10 HEPES. PH was adjusted to 7.2. Low calcium solutions contained 0.018 mM CaCl2 and other components were the same as normal Ca^2+ solution. To study the effects of CNS4 in the absence of extracellular Na^+, NaCl was replaced with impermeable agent, N‐methyl‐D‐glucamine (NMDG, […]). HCl was used to dissolve the NMDG and to adjust the PH to 7.2. NMDG‐containing solutions are termed Nafree. […] There were four different agonist solutions used for each set of Ca^2+ recordings: (1) Agonist, (2) Agonist+CNS4, (3) Agonist in Nafree solution, (4) Agonist+CNS4 in Nafree solution. Each solution was applied to the oocytes in sequential order and the same order was followed for all I‐V recordings. Low Ca^2+ experiments were carried out in the same way as normal Ca^2+ experiments, except that they had 0.018 mM Ca^2+ in all four agonist and recording solutions. Steady state current responses evoked by these solutions at each voltage step were measured. Reversal potentials (Erev) were obtained from x‐intercept values when y = 0 after fitting the I‐V data using a third order polynomial, non‐linear curve fitting equation Y=B0+B1^*X+B2^*X^2+B3^*X^3 . Erev obtained from each oocyte with different agonists were compared in a pairwise manner. These differences were then averaged. Paired or unpaired student t‐test was performed to compare the data as mentioned in each figure legend.
FIGURE 5 Effect on CNS4 on agonist induced current directions in 1/2A receptors. Current –Voltage (I‐V) relationship of 1/2A receptors was studied with normal (A) and low (B) CaCl2 containing extracellular solutions. […] (C) Comparison of reversal potentials values. Dark and light blue circles indicate normal and low CaCl2 experiments, respectively. Dark and light red squares indicate equivalent I‐V experiments with NMDG (Nafree). Dotted and thick lines denote the absence (empty circles or squares) and presence (filled circles or squares) of 100 μM CNS4, respectively. Traces (Ai&ii, Bi&ii) represent the current response at −90 mv. N = 5 (5) & n = 7(7) for normal & low Ca^2+ assays, respectively. Erev obtained from each oocyte with different agonists were compared in a pairwise manner. Paired student t‐test was performed to compare the data presented at Ci. Unpaired student's t‐test was performed to compare the difference in reversal potentials (triangles). *p < .05, **p < .01, ***p < .001, […].

[1] = target: T2, E781A_1/2A mutant receptor (UniProt P35439+Q12879, E781A); assay: TEVC glutamate dose-response, GluN1 E781A mutant with wild type GluN2A; type: cell-based; parameters: Glutamate efficacy: unit not given here
T2 construct: expressed in transfected cells; host or cells: Xenopus oocytes (cRNA injection)
Source text: NMDA receptor constructs: cDNA encoding the NMDA receptor1a subunit (GluN1a) was obtained from Dr. Nakanishi (Kyoto, Japan). cDNA encoding the GluN2B (pci_sepGluN2B), originally developed in the Malinow lab,[33] was purchased from Addgene (cat# 23998), Cambridge, MA. cDNA encoding the GluN2C and GluN2D were purchased from GenScript, New Jersey, USA. Mutated GluN1, 2A and 2B cDNA constructs capable of assembling as GluN1/2A/2B triheteromeric (1/2AB) receptors[34] were obtained from Dr. Paoletti (Laboratoire de Neurobiologie, CNRS). These constructs have been previously tested for 1/2AB receptor activity of GluN1/2A receptor‐selective potentiators.[35] […] Plasmids were linearized with NotI (GluN1a and all five GluN1 mutants) or Avrll (GluN2B), or BstB1 (GluN2C and GluN2D) and transcribed in vitro with T7 (GluN1a, GluN1/2A, GluN2B, GluN2C & GluN2D), and SP6 (GluN1 mutants) RNA polymerase using the mMessage mMachine transcription kits (Invitrogen by Thermo Fisher Scientific).
Electrophysiological responses were measured using a standard two‐microelectrode voltage‐clamp workstation (Warner Instruments model OC‐725C) designed to provide a fast clamp of large cells. The recording buffer contained 116 mM NaCl, 2 mM KCl, 0.3 mM BaCl2, and 5 mM HEPES, pH 7.4. Response magnitude was determined in Xenopus oocytes expressing different NMDA receptor subunits (GluN1/2A, 1/2B, 1/2C, 1/2D, and 1/2A/2B) by the steady plateau response elicited by bath application of different agonist concentrations. […] All data points were obtained from the steady state currents unless stated otherwise. Dose–response relationships were fit to an appropriate curve‐fitting equation using GraphPad Prism‐7. Non‐linear regression was used to calculate EC50, IC50, and fold change or percentage maximal response. Curves were fit using the following equations as performed in the previous studies, [37]: Y=100/1+10^LogEC50−XorY=Bottom+Top−Bottom/1+10^LogEC50−X . Statistical significance was determined at the overall alpha level 0.05, using appropriate statistical methods as described in all figure captions. […]

T2 sequence (Q12879 23-1464, other chains not shown): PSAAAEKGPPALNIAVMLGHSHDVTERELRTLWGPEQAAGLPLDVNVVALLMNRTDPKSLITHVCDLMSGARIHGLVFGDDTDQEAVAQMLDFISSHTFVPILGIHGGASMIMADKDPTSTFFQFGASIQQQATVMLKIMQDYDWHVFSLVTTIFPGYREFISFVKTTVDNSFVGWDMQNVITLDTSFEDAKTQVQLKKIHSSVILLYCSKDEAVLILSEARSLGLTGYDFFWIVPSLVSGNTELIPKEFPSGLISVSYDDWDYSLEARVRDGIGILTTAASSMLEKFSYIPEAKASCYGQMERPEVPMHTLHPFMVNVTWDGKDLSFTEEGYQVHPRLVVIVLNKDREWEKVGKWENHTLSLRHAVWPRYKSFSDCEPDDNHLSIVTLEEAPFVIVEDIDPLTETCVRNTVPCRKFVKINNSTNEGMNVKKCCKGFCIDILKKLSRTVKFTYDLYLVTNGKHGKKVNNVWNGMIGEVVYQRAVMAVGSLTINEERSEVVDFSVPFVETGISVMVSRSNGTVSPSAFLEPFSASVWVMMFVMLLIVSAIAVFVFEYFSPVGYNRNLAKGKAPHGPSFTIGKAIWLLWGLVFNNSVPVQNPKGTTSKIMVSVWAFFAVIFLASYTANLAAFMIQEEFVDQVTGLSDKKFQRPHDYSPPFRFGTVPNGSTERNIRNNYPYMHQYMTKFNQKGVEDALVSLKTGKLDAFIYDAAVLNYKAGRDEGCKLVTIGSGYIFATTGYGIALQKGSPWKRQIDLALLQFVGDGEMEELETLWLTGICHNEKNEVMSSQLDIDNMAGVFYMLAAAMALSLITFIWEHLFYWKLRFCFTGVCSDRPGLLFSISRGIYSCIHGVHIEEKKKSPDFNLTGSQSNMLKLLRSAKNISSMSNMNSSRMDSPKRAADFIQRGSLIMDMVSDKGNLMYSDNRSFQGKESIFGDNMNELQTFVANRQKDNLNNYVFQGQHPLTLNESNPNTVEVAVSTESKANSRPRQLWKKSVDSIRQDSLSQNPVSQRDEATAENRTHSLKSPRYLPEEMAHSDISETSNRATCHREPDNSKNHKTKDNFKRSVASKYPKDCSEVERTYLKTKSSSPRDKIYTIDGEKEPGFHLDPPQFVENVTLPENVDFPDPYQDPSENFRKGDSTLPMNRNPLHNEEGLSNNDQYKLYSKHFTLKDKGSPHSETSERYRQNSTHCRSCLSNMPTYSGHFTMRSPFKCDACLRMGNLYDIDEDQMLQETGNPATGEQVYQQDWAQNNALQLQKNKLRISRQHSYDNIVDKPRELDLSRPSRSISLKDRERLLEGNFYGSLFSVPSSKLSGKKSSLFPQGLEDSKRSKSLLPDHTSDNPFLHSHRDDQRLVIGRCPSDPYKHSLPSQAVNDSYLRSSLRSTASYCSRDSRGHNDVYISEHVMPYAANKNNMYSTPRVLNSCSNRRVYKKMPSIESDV
T1 sequence (Q12879 23-1464, other chains not shown): as above

O=C(NC(=S)N1CCCCC1c1cccnc1)c1ccc(F)cc1 (stereo not shown) [CNS4]
Difference in reversal potential (∆Erev) between W and WO CNS4 (GluN1/2A NMDA receptors; low Ca2+, Nafree, n = 7): −7.32 ± 3.95 mV
Difference in reversal potential (∆Erev) between W and WO CNS4 (GluN1/2A NMDA receptors; low Ca2+, with Na+, n = 6): 8.76 ± 3.15 mV
Difference in reversal potential (∆Erev) between WO and W CNS4 (GluN1/2A NMDA receptors; normal Ca2+, Nafree, n = 3): −6.79 ± 1.98 mV
Difference in reversal potential (∆Erev) between WO and W CNS4 (GluN1/2A NMDA receptors; normal Ca2+, with Na+, n = 4): 24.85 ± 3.26 mV
Reversal potential (Erev) (GluN1/2A NMDA receptors; 1.8 mM (normal) Ca2+, with Na+, 100 μM glutamate + glycine, without CNS4 −12.05 ± 8.18, p = .004): 10.49 ± 8.23 mV
Reversal potential (Erev) (GluN1/2A NMDA receptors; low Ca2+, Nafree, without CNS4 −61.38 ± 3.99, p = .113): −68.71 ± 4.82 mV
Reversal potential (Erev) (GluN1/2A NMDA receptors; normal Ca2+, Nafree (NMDG), without CNS4 −18.16 ± 5.09, p = .16): −32.93 ± 7.03 mV
Glutamate efficacy, E781A mutant compared to wild type 1/2A ([1]; absence of glycine, presence of CNS4, 100 μM glutamate): ~ 34 fold
100 μM glutamate induced relative current amplitude (glutamate efficacy) ([1]; absence of glycine, presence of CNS4, n = 6 (3), p = .001 vs wild type): 1.39 ± 0.29 fold
Glutamate efficacy ([1]; in the presence of 30 μM glycine and 30 μM CNS4, n = 5 (4), p = .11 vs wild type): 118.5 ± 40.87
